Measurements taken from patent US20020028851A1, “Guanylhydrazones and their use to treat inflammatory conditions” (priority 1994, published 2002).
Where two headings read alike, the source gives them in different places. Values belong to the compound of their own block, whether it stands above or below them.

How the values were obtained:
RAW 264.7 cells [1] = experiment: Whole cell inhibition assay for urea output; type: cell-based, murine; settings: for urea % suppression of induced production: γIFN+LPS, 18 hours; for IC50: interpolated, γIFN+LPS-activated RAW 264.7, 18 hours, read-out: I.C.50 (in parenthesis), inhibition of urea production
Procedure: (§1) RAW 264.7 cells are plated in microculture wells at 1×10^6/ml in RPMI 1640 with 10% FBS and otherwise standard culture conditions and allowed to adhere for 5 hours. They are then activated with 25 U/ml γIFN and 0.1 μg/ml LPS in the presence of test inhibitors. The urea concentration present in the supernatant media, after 18 hours of culture, is determined by a colorimetric blood urea nitrogen diacetylmonoxime assay performed on an aliquot of the culture supernatant (Sigma Chem. Co., St. Louis, Mo.) and inhibition is expressed as the percentage urea compared to that of a parallel control culture treated identically except that the concentration of added inhibitor is zero.
(§2) Various concentrations of the test compounds are included in the media of the stimulated RAW 264.7 cells in culture. The concentration of urea and/or nitrite after 18 hours of activated culture is determined and compared to the uninhibited control value obtained from at least one parallel culture. The fractional reduction is calculated for each concentration of inhibitor and the IC50 (concentration giving 50% reduction) is interpolated. Compounds were dissolved in media with mild heat (60° C.). Those with limited solubility were dissolved in base. The concentration of stock solutions of those compounds which were not completely soluble was determined by OD280.

RAW 264.7 cells [2] = experiment: Whole cell inhibition assay for NO (nitrite) output; type: cell-based, murine; settings: γIFN+LPS, 18 hours
Procedure: as §1
The production of nitrite is determined by assay of the same tissue culture supernatant by means of a calorimetric assay. Briefly, 4 parts of test solution containing 1% (w/v) sulfanilamide, 0.1% naphthylethylenediamine di-HCl (Griess Reagent), 2.5% H3PO4 and one part media are mixed, incubated for 10 minutes and the absorbance at 560 nm determined. The nitrite concentrations are interpolated from reference curves prepared using NaNO2.
as §2
(§3) This section describes experiments that measure the concentration of Compound No. 14 needed to inhibit arginine uptake and NO output. The techniques employed were described in section 7.1 supra.

RAW 264.7 cells [3] = experiment: Whole cell inhibition assay for arginine uptake; type: cell-based, murine; settings: γIFN+LPS, 8 hours
Procedure: In the embodiment described in the working example herein, a test population of cells was cultured for about 3 hours so that the cells became firmly adherent. Various concentrations of the potential inhibitors were then added to parallel cultures. One hour later the macrophage stimulators, e.g. including, but not limited to LPS and γIFN, were added. Eighteen hours later the cells were washed in a warm balanced salt solution supplemented with glucose. Carrier-free radiolabelled arginine was added; after 5 minutes, active uptake of arginine was stopped by washing the cell three times with buffer, chilled to 0° C., containing 10 mM unlabeled arginine to displace any externally bound label. The contents of the washed cells are solubilized in 100 μl of formic acid and counted by standard techniques.
RAW 264.7 cells are plated in standard 96-well microculture plates at a concentration of 10^5/well and allowed to adhere for from 2 hours to overnight. The medium is then replaced with medium containing the compound to be tested. One hour later, the medium is supplemented so as to contain 25 U/ml γIFN and 0.1 μg/ml LPS and the cultures incubated a further. The cells are then rinsed twice in HEPES- buffered Krebs salt solution with 0.1% glucose. Carrier-free tetra-^3H-arginine is added to each well (2.5 μCi/well with specific activity of […]) and the active uptake of arginine is allowed to continue for a 5 minute period after which the cells are rapidly cooled to 0° C. by lavage with iced saline containing 10 mM unlabeled arginine to displace any externally bound label. The contents of the washed cells are solubilized in 100 Al of formic acid and counted by standard techniques. In subsequent experiments to determine the acitivity of the inhibitors, incubations were performed for 8 hours.
as §3

melting point: 268 to 272 °C
SMILES: CC(=NNC(=N)N)c1cc(NC(=O)c2ccccc2)cc(C(C)=NNC(=N)N)c1.Cl.Cl

IC50 (RAW 264.7 cells [1]): 10 µM
SMILES: CC(=NNC(=N)N)c1ccc(NC(=O)Nc2cc(C(C)=NNC(=N)N)cc(C(C)=NNC(=N)N)c2)cc1.Cl.Cl.Cl [Compound 9, N-(4-acetylphenyl)-N′-(3,5-diacetylphenyl)urea tris(amidinohydrazone) trihydrochloride]
urea % suppression of induced production (RAW 264.7 cells [1]; dose 1 μM): 0%
urea % suppression of induced production (RAW 264.7 cells [1]; dose 10 μM): 60%
urea % suppression of induced production (RAW 264.7 cells [1]; dose 25 μM): 100%
no2/no3 % suppression of induced production (RAW 264.7 cells [2]; dose 1 μM): 0%
no2/no3 % suppression of induced production (RAW 264.7 cells [2]; dose 10 μM): 53%
no2/no3 % suppression of induced production (RAW 264.7 cells [2]; dose 25 μM): 71%
arginine transport % suppression of induced peak (RAW 264.7 cells [3]; dose 1 μM): 14%
arginine transport % suppression of induced peak (RAW 264.7 cells [3]; dose 10 μM): 32%
arginine transport % suppression of induced peak (RAW 264.7 cells [3]; dose 25 μM): 68%

melting point: 270 to 275 °C (dec.)
SMILES: CC(=O)c1cccc(NC(=NNC(=N)N)c2cc(C(=NNC(=N)N)Nc3cccc(C(C)=O)c3)cc(C(=NNC(=N)N)Nc3cccc(C(C)=O)c3)c2)c1.Cl.Cl.Cl (hydrate or solvate)

IC50 (RAW 264.7 cells [1]; Mus musculus, RAW264.7): 10 µM
SMILES: CC(=NNC(=N)N)c1cc(C(C)=NNC(=N)N)cc(C(C)=NNC(=N)N)c1 [Compound 1, 1,3,5-triacetylbenzene tris(guanylhydrazone)]
urea % suppression of induced production (RAW 264.7 cells [1]; dose 10 μM): 60%
urea % suppression of induced production (RAW 264.7 cells [1]; dose 25 μM): 100%
no2/no3 % suppression of induced production (RAW 264.7 cells [2]; dose 10 μM): 58%
no2/no3 % suppression of induced production (RAW 264.7 cells [2]; dose 25 μM): 72%
arginine transport % suppression of induced peak (RAW 264.7 cells [3]; dose 1 μM): 0%
arginine transport % suppression of induced peak (RAW 264.7 cells [3]; dose 10 μM): 20%
arginine transport % suppression of induced peak (RAW 264.7 cells [3]; dose 25 μM): 40%

IC50 (RAW 264.7 cells [1]): 50 µM
SMILES: CC(=NNC(=N)N)c1ccc(NC(=O)Nc2ccc(C(C)=NNC(=N)N)cc2)cc1 [Compound 8, 4,4′-diacetyldiphenylurea bis(guanylhydrazone)]
urea % suppression of induced production (RAW 264.7 cells [1]; dose 50 μM): 76%
urea % suppression of induced production (RAW 264.7 cells [1]; dose 500 μM): 100%

melting point: 250 to 251 °C (dec.)
SMILES: CC(=O)c1cc(NC(=O)NCCCN(CCCNC(=NNC(=N)N)Nc2cc(C(C)=NNC(=N)N)cc(C(C)=NNC(=N)N)c2)CCCNC(=NNC(=N)N)Nc2cc(C(C)=NNC(=N)N)cc(C(C)=NNC(=N)N)c2)cc(C(C)=O)c1.Cl.Cl.Cl.Cl.Cl.Cl.Cl (hydrate or solvate)

melting point: 258 to 259 °C
SMILES: CC(=O)c1cc(NC(=NNC(=N)N)NCC(C)CCCNC(=NNC(=N)N)Nc2cc(C(C)=NNC(=N)N)cc(C(C)=NNC(=N)N)c2)cc(C(C)=O)c1.Cl.Cl.Cl.Cl (stereo not shown) (hydrate or solvate)

IC50 (RAW 264.7 cells [1]): 2000 µM
SMILES: CC(=NNC(=N)N)c1ccc(O)c(O)c1.Cl [Compound 7, 2-[(3,4-dihydroxyphenyl)-ethylidyne]hydrazinecarboximidamide hydrochloride]
urea % suppression of induced production (RAW 264.7 cells [1]; dose 10 μM): 23%
urea % suppression of induced production (RAW 264.7 cells [1]; dose 100 μM): 35%
urea % suppression of induced production (RAW 264.7 cells [1]; dose 1 mM): 40%
urea % suppression of induced production (RAW 264.7 cells [1]; dose 2 mM): 55%
urea % suppression of induced production (RAW 264.7 cells [1]; dose 10 mM): 100%

IC50 (RAW 264.7 cells [1]): 250 µM
SMILES: CC(=NNC(=N)N)c1ccc(-n2ccnc2)cc1.Cl [Compound 6, 2-([(1H-imidazol-1-yl)-1,4-phenylene]ethylidyne)hydrazinecarboximidamide hydrochloride]
urea % suppression of induced production (RAW 264.7 cells [1]; dose 50 μM): 0%
urea % suppression of induced production (RAW 264.7 cells [1]; dose 100 μM): 40%
urea % suppression of induced production (RAW 264.7 cells [1]; dose 1 mM): 100%

IC50 (RAW 264.7 cells [1]): 10 µM
SMILES: CC(=NNC(=N)N)c1cc(NC(=O)CCCC(=O)Nc2cc(C(C)=NNC(=N)N)cc(C(C)=NNC(=N)N)c2)cc(C(C)=NNC(=N)N)c1.Cl.Cl.Cl.Cl [Compound 13, N,N′-bis(3,5-diacetyl-phenyl)pentanediamide tetrakis(amidinohydrazone) tetrahydrochloride]
urea % suppression of induced production (RAW 264.7 cells [1]; dose 10 μM): 45%
urea % suppression of induced production (RAW 264.7 cells [1]; dose 25 μM, compound as precipitate): 77%
urea % suppression of induced production (RAW 264.7 cells [1]; dose 25 μM, compound dissolved as solution): 100%
urea % suppression of induced production (RAW 264.7 cells [1]; dose 50 μM): 87%
urea % suppression of induced production (RAW 264.7 cells [1]; dose 500 μM): 100%
no2/no3 % suppression of induced production (RAW 264.7 cells [2]; dose 25 μM): 43%
no2/no3 % suppression of induced production (RAW 264.7 cells [2]; dose 500 μM): 52%
arginine transport % suppression of induced peak (RAW 264.7 cells [3]; dose 25 μM): 19%
arginine transport % suppression of induced peak (RAW 264.7 cells [3]; dose 50 μM): 7%
arginine transport % suppression of induced peak (RAW 264.7 cells [3]; dose 500 μM): 93%
